Test results published in PubChem BioAssay AID1996.
In brackets after ≈: the same amount, converted by molar mass.

Details: buffer; pH 7.4; 200.0 µM

SMILES	solubility kinetic [µg/mL]
CC1CN(C(=O)CNC(=O)COc2ccccc2)CC(C)O1 (stereo unspecified)	> 46
NC1=NC(=O)/C(=C\c2ccco2)S1	> 29.1
CC(=O)c1cccc(NC(=S)NCc2ccco2)c1	33.7 (≈ 123 µM)
Brc1cc(Br)cc(CN2CCSCC2)c1	< 0.8
CSCc1cc(N(C)c2ccccc2)nc(-c2ccccn2)n1	42.8 (≈ 133 µM)
O=C(Cn1cc([N+](=O)[O-])ccc1=O)N1CCc2ccccc21	11.3 (≈ 37.8 µM)
CCCCS(=O)(=O)N1CCCC(C(=O)NCCc2ccccc2)C1 (stereo unspecified)	14.7 (≈ 41.7 µM)
O=c1oc2ccccc2c(Nc2ccccc2)c1CN1CCCCC1	44.1 (≈ 132 µM)
Cc1ccc(S(=O)(=O)Nc2cccnc2)c(C)c1C	9.1 (≈ 32.9 µM)
CC(=O)NC(C(=O)c1ccccc1)N1CCCCC1 (stereo unspecified)	29.1 (≈ 112 µM)
O=C1/C(=C\c2cccc(O)c2)SC(=S)N1Cc1ccccc1	< 0.7
O=C(Cc1ccccc1F)Nc1ccccc1N1CCCC1	27.8 (≈ 93.2 µM)
COC(=O)C(C)(N)Cc1ccc(O)cc1.Cl (stereo unspecified)	> 36.9
COc1ccc(-c2noc(=O)n2Cc2ccccc2Cl)cc1	17.8 (≈ 56.2 µM)
Cc1csc(SCC(=O)Nc2ccc3[nH]c(=O)[nH]c3c2)n1	> 48.1
CCOC(=O)C1CCCCN1Cc1ccc(-c2ccccc2)cc1 (stereo unspecified)	1.5 (≈ 4.64 µM)
OC(CN1CCCC(C(F)(F)F)C1)c1ccccc1 (stereo unspecified)	31.1 (≈ 114 µM)
CCN(CC)c1ccc(NC(=O)CCCCC(=O)Nc2ccc(N(CC)CC)cc2)cc1	0.4 (≈ 0.912 µM)
COC(=O)C1=C(C)NC(C)=C(C(=O)OC)C1c1ccco1	21.9 (≈ 75.2 µM)
CCCCC(=O)Nc1cccc(-c2nc3ncccc3o2)c1C	> 46.4
O=C(c1cc(-c2cccc(O)c2)on1)N1CCCCCC1	40.8 (≈ 142 µM)
COc1ccc(CCNCc2ccccc2F)cc1.O=C(O)C(=O)O	46.4
Cc1ccc(N(CC(=O)Nc2cc(C)ccc2C)S(C)(=O)=O)cc1	33.7 (≈ 97.3 µM)
Nc1ccc(C(=O)C(=O)c2ccccc2)cc1	> 33.8
COc1ccc(CC(=O)Nc2cc(S(=O)(=O)N3CCOCC3)ccc2N2CCCC2)cc1OC	> 73.4

SMILES	solubility kinetic [µg/mL]
S=C(NCc1cccnc1)c1ccccc1	> 34.2
Cc1ccc(CNC(=O)Nc2ccc(OC(F)(F)F)cc2)n1C	9.4 (≈ 28.7 µM)
Cc1ccc(NC(=O)C(c2ccccc2)N(C)C)cc1Cl (stereo unspecified)	28.3 (≈ 93.5 µM)
COc1ccccc1NC(=S)N(C(C)C)C(C)c1ccccn1 (stereo unspecified)	37.8 (≈ 115 µM)
CSc1ccc(Cl)c(C(=O)N2CCOc3ccccc32)c1	13.5 (≈ 42.2 µM)
COc1ccccc1N1C(=O)CC(=O)NC1=O	> 35.1
COc1cccc(C(=O)NC2CCCc3ccccc32)c1 (stereo unspecified)	7.8 (≈ 27.7 µM)
O=C(Nc1nccs1)[C@@H]1CCCN1S(=O)(=O)c1ccc(Cl)cc1	31.5 (≈ 84.7 µM)
Nc1nc(NCc2ccco2)nc(NCCO)c1[N+](=O)[O-]	> 44.1
COC(=O)c1sccc1NC(=O)Nc1ccc(C)cc1C	6.6 (≈ 21.7 µM)
O=C(COC(=O)COc1ccc(Br)cc1)NC1CCCC1	13.3 (≈ 37.3 µM)
Cc1ccc(NC(=O)/C=C2\NC(=O)CS2)cc1	4.1 (≈ 16.5 µM)
CNC(=O)c1cc2cc(Cc3ccccc3Cl)ccc2oc1=O	< 0.7
O=C(CN1CCCCCC1)Nc1ccc(S(=O)(=O)N2CCCCC2)cc1	50.4 (≈ 133 µM)
CC(C)(C)c1ccccc1NC(=S)NC1CCCCC1	2.5 (≈ 8.61 µM)
Cc1cc(C)c(C#N)c(SCC(=O)Nc2cc(C)on2)n1	2.1 (≈ 6.95 µM)
Cc1ccc(NS(=O)(=O)c2cccc([N+](=O)[O-])c2)nc1	14.6 (≈ 49.8 µM)
Cc1ccc(Cn2ccsc2=NC(=O)COC(=O)C(C)C)cc1	45.3 (≈ 136 µM)
COc1ccc(CNc2nccs2)cc1	19.5 (≈ 88.5 µM)
Cc1cc(C)n(-c2ccnc3cc(Cl)ccc23)n1	> 38.7
Cc1ccc(NC(=O)CC2NCCN(Cc3ccccc3)C2=O)cc1 (stereo unspecified)	43.6 (≈ 129 µM)
CN1CCCC(OC(=O)c2ccc(C(C)(C)C)cc2)C1.Cl (stereo unspecified)	> 46.8
COc1cc(-c2csc(NC3CCCCC3)n2)cc(OC)c1OC	6.6 (≈ 18.9 µM)
CCCN1CCN(S(=O)(=O)c2cn(C)nc2C)CC1	> 43
CC(NC(=O)c1ccc(F)cc1F)C1CC2CCC1C2 (stereo unspecified)	12.7 (≈ 45.5 µM)

SMILES	solubility kinetic [µg/mL]
CCN(CC)Cc1c(O)ccc2c(=O)c(-c3ccccc3Cl)coc12	> 53.7
Cc1ccc(O)c(NC(=O)Cc2ccc3ccccc3c2)c1	6.5 (≈ 22.3 µM)
CC(C)c1cccc(OCCN2CCCC2)c1	22.9 (≈ 98.1 µM)
CP(=O)(Nc1ccccc1)C(Cl)(Cl)Cl (stereo unspecified)	> 40.9
O=C(O)c1ccc(Cl)c(S(=O)(=O)NCc2cccnc2)c1	> 49
CC(Cc1ccccc1)N1C(=O)c2ccccc2C1=O (stereo unspecified)	10.6 (≈ 40 µM)
O=C(CC(=O)Nc1ccccc1)Nc1ccccc1	8.4 (≈ 33 µM)
O=C1CC(N2CCC(c3nc4ccccc4o3)CC2)C(=O)N1 (stereo unspecified)	43.1 (≈ 144 µM)
O=C(CSC(=O)c1ccccc1)Nc1ccccc1F	9.8 (≈ 33.9 µM)
Cc1cc(C)c(C#N)c(Nc2ccc(F)cc2)n1	0.8 (≈ 3.32 µM)
CC1CC1C(=O)OCC(=O)NC(=O)NC12CC3CC(CC(C3)C1)C2 (stereo unspecified)	22.5 (≈ 67.3 µM)
Cc1ccn2c(NC3CCCC3)c(-c3cccs3)nc2c1.Cl	14.7
COc1ccc(NC(=O)CNC(=O)c2ccco2)cc1	40.5 (≈ 148 µM)
C=CCN=C1S/C(=C\c2ccc(Cl)cc2)C(=O)N1CC=C	2 (≈ 6.27 µM)
CC(=O)c1c(O)c2ccccc2n(C)c1=O	27.3 (≈ 126 µM)
CC1(C)CC2CC(C)(CN2C(=S)Nc2ccccc2F)C1 (stereo unspecified)	44 (≈ 144 µM)
CC(=O)c1cccc(NC(=O)CNC(=O)Cc2cccc3ccccc23)c1	8.4 (≈ 23.3 µM)
CC(C)CNS(=O)(=O)c1ccc(CCC(=O)NCCc2ccccc2)cc1	16.3 (≈ 42 µM)
O=c1cc(OCc2ccccc2)cc[nH]1	> 30.2
Cc1ccc(S(=O)(=O)Nc2cc(C)on2)cc1	28.1 (≈ 111 µM)
Cc1ccc(C(=O)OCC(=O)NC2CCCCC2)o1	> 39.8
COc1cc2sc(C)nc2cc1C	4.8 (≈ 24.8 µM)
CSc1ncccc1C(=O)NCC1CCCCC1	38.4 (≈ 145 µM)
O=C1NC(c2ccccc2O)Nc2ccccc21 (stereo unspecified)	34.8 (≈ 145 µM)
O=C(CSc1nncs1)NNC(=O)c1ccccc1Br	> 56

SMILES	solubility kinetic [µg/mL]
COc1ccccc1NC(=O)/C=C/C(=O)O	> 33.2
COc1cccc(OCC(O)CNC(=O)c2oc3ccc(C)cc3c2C)c1 (stereo unspecified)	20.2 (≈ 54.7 µM)
Cc1ccc2c(c1)N(CC(=O)NCC1CCCO1)C(=O)CO2 (stereo unspecified)	> 45.7
CCOC(=O)C1CCCN1C(=O)c1ccc(OC)c(Br)c1 (stereo unspecified)	> 53.4
Cc1ccc(S(=O)(=O)NC2CCCCCC2)cc1C(N)=O	> 46.6
COc1ccc(C(=O)C[n+]2ccc(N(C)C)cc2)cc1.[Cl-]	> 46
O=C(N[C@@H](Cc1ccccc1)C(=O)N1CCN(S(=O)(=O)c2ccccc2F)CC1)c1ccco1	23.7 (≈ 48.8 µM)
CN1C(=O)C(c2ccccc2[N+](=O)[O-])C(=O)c2ccccc21 (stereo unspecified)	> 44.4
Cc1ccc(C(=O)Nc2ncccc2C)o1	> 32.4
COC(=O)c1cc(OC(=O)c2ccc(=O)[nH]c2)cc(C(=O)OC)c1	12.6 (≈ 38 µM)
COc1ccc(/C=N/OCC(=O)N2CCCC2)c(OC)c1	> 43.9
CCCCNC(=S)Nc1ccc(Oc2ccccc2)cc1	6.5 (≈ 21.6 µM)
CN1C(=O)c2ccc(NC(=O)c3c(C(=O)O)cccc3[N+](=O)[O-])cc2C1=O	> 55.4
O=C(Nc1ccccc1N1CCCCC1)c1ccc(OC(F)F)cc1	0.7 (≈ 2.02 µM)
CCCCNC(=O)CN1C(=O)NC(CCc2ccccc2)C1=O (stereo unspecified)	33.8 (≈ 106 µM)
Cc1nc2ccc(NC(=S)N3CCOCC3)cc2nc1C	39.3 (≈ 130 µM)
CCN1C(=O)CSC1=Nc1ccc(C(=O)O)cc1	39 (≈ 148 µM)
O=S(=O)(c1ccc(Cl)cc1)N1CCCc2ccccc21	3.7 (≈ 12 µM)
COc1ccc(C2(C)NC(=O)N(CC3CCCCC3)C2=O)cc1 (stereo unspecified)	> 47.5
N/C(=N\c1nc2ccccc2o1)NC(=O)c1cccc(Cl)c1	< 0.2
Cc1ccc(S(=O)(=O)N2CCOCC2)cc1C(=O)OCC(=O)NCCc1ccccc1	> 67
CN(C(=O)c1cncc(Br)c1)C1C2CC3CC(C2)CC1C3 (stereo unspecified)	48.1 (≈ 138 µM)
CCc1noc(C)c1C(=O)Nc1nc2c(C)cccc2s1	8.6 (≈ 28.5 µM)
COc1ccccc1OCC(=O)Nc1ccc(NC(=O)COc2ccccc2OC)cc1	1.4 (≈ 3.21 µM)
CCOC(=O)c1c(/N=C/c2ccc(C)cc2O)sc2c1CCN(C)C2	11.6 (≈ 32.4 µM)

SMILES	solubility kinetic [µg/mL]
CC(C)(C)C(=O)c1cn(Cc2ccccc2)c2ccccc12	1.5 (≈ 5.15 µM)
CN(Cc1ccccc1C#N)S(=O)(=O)c1cccs1	34.8 (≈ 119 µM)
O=c1[nH]c(-c2ccccc2)c(-c2ccccc2)nc1[N+](=O)[O-]	42.1 (≈ 144 µM)
CN(CC(=O)c1c(N)n(C)c(=O)n(C)c1=O)c1ccccc1	> 45.3
Cc1nc2ccccc2nc1Nc1cccc(Cl)c1	20.2 (≈ 74.9 µM)
CCN(CC)C(=O)CN(C#N)c1nc(Cl)nc(N(C)C)n1	41.3 (≈ 132 µM)
COc1ccc(C(=O)CNc2ccccc2Br)cc1	5.6 (≈ 17.5 µM)
COc1ccc(NC(=O)NS(=O)(=O)c2ccc(C)cc2)cc1OC	> 52.6
CSc1cc(CS(=O)(=O)c2ccccc2)nc(-c2ccccc2)n1	< 0.4
CCC(=O)Nc1ccc2c(c1)nc1n2CCN(CCOC)C1	> 45.4
Cc1ccoc1C(=O)N1CCN(C(=O)c2occc2C)CC1	> 45.3
C=CCN1C2CCCC1CC(NC(=S)Nc1ccc(Cl)cc1)C2 (stereo unspecified)	> 52.5
CC(C)C12CN3CC(C(C)C)(CN(C1)C3(C)C)C2=O	32 (≈ 121 µM)
CCOC(=O)C1CN(S(=O)(=O)c2cc(OC)ccc2OC)C1	48.8 (≈ 148 µM)
COc1cc(OC)cc(C(=O)N[C@H](C(=O)OCC(=O)c2ccc(C)c([N+](=O)[O-])c2)C(C)C)c1	28.8 (≈ 62.8 µM)
O=[N+]([O-])c1cccc(NC(=S)N2CCCC2)c1	> 37.7
CCC(=O)NN1CCN(c2ccncc2S(=O)(=O)N2CCCCC2)CC1	> 57.2
COc1cccc(-c2nc(NCc3cccnc3)c3ccccc3n2)c1O	0.3 (≈ 0.837 µM)
CC(=O)c1c(OC(=O)c2cccc(Cl)c2)c2ccccc2n1C	< 0.7
COc1cc2c(cc1OC)CN(C(=O)Cn1ccccc1=O)CC2	> 49.3
O=C(Cc1ccc(Cl)cc1)NCC(=O)N1CCCCC1	39.7 (≈ 135 µM)
